Assay results reported in the supplement of paper PMC4862054.

Experiments:
Test in all cases: normalised viability (% of control), CellTiter-Blue; higher = more viable cells (about 100 = DMSO control)
Conditions in all cases: incubation time: 72 h
BT-549 [1] = system: BT-549
Method: (§1)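 DSRT, CellTiter-Blue viability, 72 h incubation. Signal is normalised to DMSO and benzethonium chloride controls. Value is the normalised response at dose 3.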

CAL-120 [2] = system: CAL-120
Method: as §1

DU-4475 [3] = system: DU-4475
Method: as §1

HCC1937 [4] = system: HCC1937
Method: as §1

HDQ-P1 [5] = system: HDQ-P1
Method: as §1

MDA-MB-231 [6] = system: MDA-MB-231
Method: as §1

MDA-MB-468 [7] = system: MDA-MB-468
Method: as §1

SK-BR-3 [8] = system: SK-BR-3
Method: as §1

BT-474 = system: BT-474
Procedure, shortened: (§2)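 Breast cancer cell lines in 20 µl suspension were seeded onto 384-well plates pre-loaded with compound dissolved in 5 µl medium, then incubated 72 h. CellTiter-Blue reagent (2.5 µl) was added for 2 h at 37 °C and fluorescence read at 560/590 nm. Each plate was normalised to vehicle (100) and a positive kill control (0), with Z'-factor quality control. The value is normalised viability at one listed concentration of the series.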

BT-549 [9] = system: BT-549; remark: listed apart in the source
Procedure, shortened: as §2

CAL-120 [10] = system: CAL-120; remark: listed apart in the source
Procedure, shortened: as §2

CAL-148 = system: CAL-148
Procedure, shortened: as §2

CAL-51 = system: CAL-51
Procedure, shortened: as §2

CAL-85-1 = system: CAL-85-1
Procedure, shortened: as §2

DU-4475 [11] = system: DU-4475; remark: listed apart in the source
Procedure, shortened: as §2

HCC1143 = system: HCC1143
Procedure, shortened: as §2

HCC1599 = system: HCC1599
Procedure, shortened: as §2

HCC1937 [12] = system: HCC1937; remark: listed apart in the source
Procedure, shortened: as §2

HDQ-P1 [13] = system: HDQ-P1; remark: listed apart in the source
Procedure, shortened: as §2

Hs578T = system: Hs578T
Procedure, shortened: as §2

MDA-MB-231 [14] = system: MDA-MB-231; remark: listed apart in the source
Procedure, shortened: as §2

MDA-MB-436 = system: MDA-MB-436
Procedure, shortened: as §2

MDA-MB-453 = system: MDA-MB-453
Procedure, shortened: as §2

MDA-MB-468 [15] = system: MDA-MB-468; remark: listed apart in the source
Procedure, shortened: as §2

MFM-223 = system: MFM-223
Procedure, shortened: as §2

SK-BR-3 [16] = system: SK-BR-3; remark: listed apart in the source
Procedure, shortened: as §2

S=c1[nH]cnc2nc[nH]c12 [Mercaptopurine]
Conditions	normalised viability [%]
BT-474, 10 nM	116
BT-474, 1000 nM	108
BT-474, 10000 nM	112
BT-549 [1], 100 nM	106
BT-549 [9], 10 nM	115
BT-549 [9], 1000 nM	105
BT-549 [9], 10000 nM	95.6
CAL-51, 3 nM	105
CAL-51, 30 nM	101
CAL-51, 100 nM	106
CAL-85-1, 3 nM	101
CAL-85-1, 30 nM	91.8
CAL-85-1, 100 nM	103
CAL-120 [2], 100 nM	90.2
CAL-120 [10], 10 nM	88.1
CAL-120 [10], 1000 nM	83.7
CAL-120 [10], 10000 nM	47.3
CAL-148, 3 nM	99.5
CAL-148, 30 nM	98.7
CAL-148, 100 nM	92.8
DU-4475 [3], 10 nM	130
DU-4475 [11], 3 nM	103
DU-4475 [11], 30 nM	87.6
DU-4475 [11], 100 nM	87.8
HCC1143, 10 nM	85.8
HCC1143, 1000 nM	95.7
HCC1143, 10000 nM	88.5
HCC1599, 10 nM	103
HCC1599, 1000 nM	96.3
HCC1599, 10000 nM	106
HCC1937 [4], 100 nM	104
HCC1937 [12], 10 nM	87.5
HCC1937 [12], 1000 nM	86.9
HCC1937 [12], 10000 nM	48.1
HDQ-P1 [5], 10 nM	106
HDQ-P1 [13], 3 nM	123
HDQ-P1 [13], 30 nM	110
HDQ-P1 [13], 100 nM	100
Hs578T, 10 nM	118
Hs578T, 1000 nM	123
Hs578T, 10000 nM	86.7
MDA-MB-231 [6], 100 nM	99.8
MDA-MB-231 [14], 10 nM	101
MDA-MB-231 [14], 1000 nM	95.9
MDA-MB-231 [14], 10000 nM	88.7
MDA-MB-436, 10 nM	89.8
MDA-MB-436, 1000 nM	74.1
MDA-MB-436, 10000 nM	83
MDA-MB-453, 3 nM	116
MDA-MB-453, 30 nM	98.1
MDA-MB-453, 100 nM	110
MDA-MB-468 [7], 100 nM	108
MDA-MB-468 [15], 10 nM	108
MDA-MB-468 [15], 1000 nM	64.9
MDA-MB-468 [15], 10000 nM	69
MFM-223, 10 nM	101
MFM-223, 1000 nM	94
MFM-223, 10000 nM	103
SK-BR-3 [8], 100 nM	94
SK-BR-3 [16], 10 nM	107
SK-BR-3 [16], 1000 nM	95.6
SK-BR-3 [16], 10000 nM	63.5

CN(C)C/C=C/C(=O)Nc1cc2c(Nc3ccc(F)c(Cl)c3)ncnc2cc1O[C@H]1CCOC1 [Afatinib]
Conditions	normalised viability [%]
BT-474, 10 nM	72.1
BT-474, 1000 nM	33.8
BT-474, 10000 nM	16
BT-549 [1], 100 nM	104
BT-549 [9], 10 nM	87.1
BT-549 [9], 1000 nM	92.9
BT-549 [9], 10000 nM	11.7
CAL-51, 3 nM	114
CAL-51, 30 nM	99.8
CAL-51, 100 nM	97.7
CAL-85-1, 3 nM	83.2
CAL-85-1, 30 nM	57.4
CAL-85-1, 100 nM	54.2
CAL-120 [2], 100 nM	71.8
CAL-120 [10], 10 nM	71.8
CAL-120 [10], 1000 nM	66.1
CAL-120 [10], 10000 nM	13.2
CAL-148, 3 nM	83.2
CAL-148, 30 nM	72.9
CAL-148, 100 nM	72.5
DU-4475 [3], 10 nM	95.1
DU-4475 [11], 3 nM	95.1
DU-4475 [11], 30 nM	83.2
DU-4475 [11], 100 nM	85.8
HCC1143, 10 nM	66
HCC1143, 1000 nM	70
HCC1143, 10000 nM	42.9
HCC1599, 10 nM	97.4
HCC1599, 1000 nM	77.6
HCC1599, 10000 nM	79.5
HCC1937 [4], 100 nM	93.4
HCC1937 [12], 10 nM	83.2
HCC1937 [12], 1000 nM	67.5
HCC1937 [12], 10000 nM	13.9
HDQ-P1 [5], 10 nM	94.3
HDQ-P1 [13], 3 nM	92.5
HDQ-P1 [13], 30 nM	76.9
HDQ-P1 [13], 100 nM	77.1
Hs578T, 10 nM	98
Hs578T, 1000 nM	95.7
Hs578T, 10000 nM	14.4
MDA-MB-231 [6], 100 nM	90.3
MDA-MB-231 [14], 10 nM	89.1
MDA-MB-231 [14], 1000 nM	74.2
MDA-MB-231 [14], 10000 nM	7.48
MDA-MB-436, 10 nM	90.8
MDA-MB-436, 1000 nM	103
MDA-MB-436, 10000 nM	17.3
MDA-MB-453, 3 nM	104
MDA-MB-453, 30 nM	67
MDA-MB-453, 100 nM	46.6
MDA-MB-468 [7], 100 nM	60.9
MDA-MB-468 [15], 10 nM	99.1
MDA-MB-468 [15], 1000 nM	56.9
MDA-MB-468 [15], 10000 nM	11.5
MFM-223, 10 nM	88.7
MFM-223, 1000 nM	83.4
MFM-223, 10000 nM	25.1
SK-BR-3 [8], 100 nM	15.2
SK-BR-3 [16], 10 nM	52.1
SK-BR-3 [16], 1000 nM	19.3
SK-BR-3 [16], 10000 nM	12.3

CO[C@H]1C[C@@H]2CC[C@@H](C)[C@@](O)(O2)C(=O)C(=O)N2CCCC[C@H]2C(=O)O[C@H]([C@H](C)C[C@@H]2CC[C@@H](OC(=O)C(C)(CO)CO)[C@H](OC)C2)CC(=O)[C@H](C)/C=C(\C)[C@@H](O)[C@@H](OC)C(=O)[C@H](C)C[C@H](C)/C=C/C=C/C=C/1C [Temsirolimus]
Conditions	normalised viability [%]
BT-474, 1 nM	80
BT-474, 100 nM	58.6
BT-474, 1000 nM	66.2
BT-549 [1], 10 nM	68.2
BT-549 [9], 1 nM	56.8
BT-549 [9], 100 nM	62.9
BT-549 [9], 1000 nM	53.4
CAL-51, 0.3 nM	89.4
CAL-51, 3 nM	55.5
CAL-51, 10 nM	37.5
CAL-85-1, 0.3 nM	69.3
CAL-85-1, 3 nM	58.9
CAL-85-1, 10 nM	60.7
CAL-120 [2], 10 nM	55.8
CAL-120 [10], 1 nM	70.6
CAL-120 [10], 100 nM	46.5
CAL-120 [10], 1000 nM	42.7
CAL-148, 0.3 nM	74.3
CAL-148, 3 nM	45.9
CAL-148, 10 nM	39.4
DU-4475 [3], 1 nM	89.8
DU-4475 [11], 0.3 nM	95.3
DU-4475 [11], 3 nM	66.6
DU-4475 [11], 10 nM	60.2
HCC1143, 1 nM	75.7
HCC1143, 100 nM	66.5
HCC1143, 1000 nM	61
HCC1599, 1 nM	103
HCC1599, 100 nM	78.7
HCC1599, 1000 nM	86.8
HCC1937 [4], 10 nM	56.5
HCC1937 [12], 1 nM	59.5
HCC1937 [12], 100 nM	68.7
HCC1937 [12], 1000 nM	54.7
HDQ-P1 [5], 1 nM	90.9
HDQ-P1 [13], 0.3 nM	106
HDQ-P1 [13], 3 nM	78.4
HDQ-P1 [13], 10 nM	82.5
Hs578T, 1 nM	70.4
Hs578T, 100 nM	55.1
Hs578T, 1000 nM	57.6
MDA-MB-231 [6], 10 nM	68
MDA-MB-231 [14], 1 nM	73.4
MDA-MB-231 [14], 100 nM	75.1
MDA-MB-231 [14], 1000 nM	78.4
MDA-MB-436, 1 nM	81.8
MDA-MB-436, 100 nM	80.6
MDA-MB-436, 1000 nM	69.5
MDA-MB-453, 0.3 nM	73.5
MDA-MB-453, 3 nM	26.1
MDA-MB-453, 10 nM	27.1
MDA-MB-468 [7], 10 nM	68.3
MDA-MB-468 [15], 1 nM	74.6
MDA-MB-468 [15], 100 nM	68.5
MDA-MB-468 [15], 1000 nM	62.4
MFM-223, 1 nM	58.1
MFM-223, 100 nM	50.5
MFM-223, 1000 nM	41
SK-BR-3 [8], 10 nM	50.5
SK-BR-3 [16], 1 nM	76.1
SK-BR-3 [16], 100 nM	54
SK-BR-3 [16], 1000 nM	49.7
